Laboratory results: patent publication US4542210A, “1-β-D-Arabinofuranosyl-(E)-5-(2-halogenovinyl)-uracil-5'-phosphate, preparation thereof and use thereof” (Yamasa Shoyu Kabushiki Kaisha, priority 1981, dated 1985)
In brackets after ≈: the same amount, converted by molar mass. Where a name gives a salt, the structure may show the parent alone. Read-outs that look alike come from different tables or passages of the source.

Assays:
HSV-1-VR-3 = assay: Antiviral activity in human embryonic lung fibroblasts (method of Sidwell et al), HSV-1-VR-3; format: cell-based, herpes simplex virus type 1 strain VR3; design: MIC: minimum inhibitory concentration at which HSV induced cytopathogenic effects were depressed more than 50%: unit not given here
Description: (§1) According to the method of Sidwell et al (Applied Microbiology, 22, (5), 797 (1971)), with the use of human embryonic lung fibroblasts, the antiviral activities of BVAUP and CVAUP were tested, with BVAU, CVAU and 5-iodo-2'-deoxyuridine (IDU) as controls.
(§2) effects were depressed more than 50%;
^1 HSV1-VR-3: herpes simplex virus type 1 strain VR3

HSV-2-MS = assay: Antiviral activity in human embryonic lung fibroblasts (method of Sidwell et al), HSV-2-MS; format: cell-based, herpes simplex virus type 2 strain MS; design: MIC: minimum inhibitory concentration at which HSV induced cytopathogenic effects were depressed more than 50%: unit not given here
Description: as §1, §2
^2 HSV2-MS: herpes simplex virus type 2 strain MS

Solubility in water = format: physicochemical
[1] = system: RE strain of HSV (type 1); assay: Ulcerative herpetic keratitis in pigmented rabbits, ointment treatment; format: in vivo, RE strain; pigmented rabbits; design: Effect (lesion inhibition): unit not given here; settings: for Effect (lesion inhibition): control 0; for % score: control 100
Description: (1) Pigmented rabbits, weighing between 2.0 and 3.0 kg, were anesthetised with intravenous pentobarbital sodium (30 mg/kg) and given a retrobulbar injection of 0.5 ml of 1% procaine. For inoculation a suspension of the RE strain of HSV (type 1) was drawn into a fine glass capillary tube (British Journal of Ophthalmology, Vol. 63, No. 6, 425-428 (1979).
After inoculation the eye was left open for 30 seconds and then the lids were closed with cellophane tape. The same procedure was repeated on the other eye. In one group of 3 rabbits the right eyes were treated with 1% BVAUP ointment and the left eyes with 1% BVAU ointment, or vice versa. In another group 3 eyes received no treatment as controls. The treatment was started 48 hours after inoculation and continued every 2 hours during the daytime 5 times a day for 4 days. The eyes were examined 48 hours after inoculation and then every 24 hours with a photo-slit lamp after applying 1% Bengal rose. Each inoculation site was scored according to the extent of the circumference infected.
The total daily score for each eye was calculated and expressed as a percentage of the score (percentage score) immediately before treatment. The therapeutic efficacies of BVAUP and BVAU against ulcerative herpetic keratitis were compared by calculating their average percentage scores.
(2) 0.3% BVAUP ointment and 3% BVAUP ointment were respectively prepared, and were subjected to the similar pharmacological test as shown in (1).

[2] = Acute toxicity (LD50) in mice; settings: mouse, in vivo
type 2 herpes (HSV-2) = assay: Antiviral activity against HSV-2 compared with HSV-1 or VZV (general statement)
[3] = 1% ointment, 5 times a day for 4 days
[4] = 1% ointment, 5 times a day for 4 days, control 97.0

| Compound | MIC: minimum inhibitory concentration at which HSV induced cytopathogenic effects were depressed more than 50% (HSV-1-VR-3) | VR: virus rating (HSV-1-VR-3) | MIC: minimum inhibitory concentration at which HSV induced cytopathogenic effects were depressed more than 50% (HSV-2-MS) | VR: virus rating (HSV-2-MS) | solubility (Solubility in water) | Effect (lesion inhibition) [1, 3] | Total score per eye [1, 4] | % score [1, 3] | LD50 ([2]; ip, intraperitoneally, read-out: LD50, intraperitoneal) | LD50 ([2]; iv, intravenously, read-out: LD50, intravenous) | antiviral activity against HSV-2 (type 2 herpes (HSV-2)) | Effect (lesion inhibition) ([1]; 0.3% ointment) | Total score per eye ([1]; 0.3% ointment, control 88.7) | % score ([1]; 0.3% ointment) | Effect (lesion inhibition) ([1]; 3% ointment) | % score ([1]; 3% ointment) | Total score per eye ([1]; 3% ointment, control 114.0) |
| --- | --- | --- | --- | --- | --- | --- | --- | --- | --- | --- | --- | --- | --- | --- | --- | --- | --- |
| O=c1[nH]c(=O)n([C@@H]2O[C@H](CO)[C@@H](O)[C@@H]2O)cc1/C=C/Br [BVAU, 1-β-D-arabinofuranosyl-(E)-5-(2-bromovinyl)uracil, reference compound] | 0.032 | 3.7 | 32 | 1.1 | 4 mg/mL (≈ 11.5 mM) | 43.0 | 55.3 | 57.0% | – | – | – | – | – | – | – | – | – |
| O=c1[nH]c(=O)n([C@@H]2O[C@H](COP(=O)(O)O)[C@@H](O)[C@@H]2O)cc1/C=C/Br [BVAUP, 1-β-D-arabinofuranosyl-(E)-5-(2-bromovinyl)uracil-5'-phosphate] | 0.032 | 3.8 | 32 | 1.1 | – | 53.9 | 44.7 | 46.1% | 1730 mg/kg | 1610 mg/kg | lower than that against the type 1 herpes (HSV-1) or VZV | 38.3 | 54.7 | 61.7% | 71.9 | 28.1% | 32.0 |
| O=c1[nH]c(=O)n([C@@H]2O[C@H](CO)[C@@H](O)[C@@H]2O)cc1/C=C/Cl [CVAU, 1-β-D-arabinofuranosyl-(E)-5-(2-chlorovinyl)uracil] | 0.032 | 3.7 | 100 | 0.7 | – | – | – | – | – | – | – | – | – | – | – | – | – |
| O=c1[nH]c(=O)n([C@@H]2O[C@H](COP(=O)(O)O)[C@@H](O)[C@@H]2O)cc1/C=C/Cl [CVAUP, 1-β-D-arabinofuranosyl-(E)-5-(2-chlorovinyl)uracil-5'-phosphate] | 0.032 | 3.7 | 320 | 0.5 | – | – | – | – | – | – | – | – | – | – | – | – | – |
| O=c1[nH]c(=O)n([C@H]2C[C@H](O)[C@@H](CO)O2)cc1I [IDU, 5-iodo-2'-deoxyuridine] | 3.2 | 2.4 | 3.2 | 2.2 | – | – | – | – | – | – | – | – | – | – | – | – | – |
| O=c1[nH]c(=O)n([C@@H]2O[C@H](COP(=O)(O)O)[C@@H](O)[C@@H]2O)cc1/C=C/Br [disodium salt of 1-β-D-arabinofuranosyl-(E)-5-(2-bromovinyl)uracil-5'-phosphate] | – | – | – | – | ~500 mg/mL | – | – | – | – | – | – | – | – | – | – | – | – |
